Data from ChEMBL document CHEMBL5365478, “Structure-Based Design and Synthesis of Stapled 10Panx1 Analogues for Use in Cardiovascular Inflammatory Diseases” (J Med Chem, 2023).
Activity calls are given as the source filed them. The calls are words filed in the database; no cut-off is given here. Bridge positions count the residues as written; N and C are the ends. Square brackets hold non-standard residues; d marks the D form. Triazole bridges read from a SMILES are 1,4-linked. Peptide text beside a SMILES is read from it. Lys(N3) = [N-]=[N+]=NCCCC[C@H](N)C(=O)O; Pra = C#CC[C@H](N)C(=O)O; Ahx = NCCCCCC(=O)O

How the values were obtained:
[1] = target: Pannexin-1 (Mus musculus) (UniProt Q9JIP4); assay: Inhibition of PANX1 in mouse B16-BL6 cells assessed as reduction in HOS-induced ATP release at 100 uM preincubated for 10 mins followed by HOS solution addition and measured after 30 mins by bioluminescence analysis relative to control; format: cell-based; conditions: time 40.0 min
[2] = target: Pannexin-1 (Mus musculus) (UniProt Q9JIP4); assay: Inhibition of PANX1 in mouse B16-BL6 cells assessed as reduction in HOS-induced ATP release at 12.5 uM preincubated for 10 mins followed by HOS solution addition and measured after 30 mins by bioluminescence analysis; format: cell-based; conditions: time 40.0 min
B16-BL6 [3] = assay: Cytotoxicity against mouse B16-BL6 cells at 12.5 to 100 uM incubated for 30 mins with compound in HOS solution by LDH assay; format: toxicity, cell-based; conditions: b16-bl6, 0.5 h, dose 12.5-100 µM
EA.hy 926 [4] = assay: Cytotoxicity against human EA.hy 926 cells at 12.5 to 100 uM incubated for 30 mins with compound in HOS solution by LDH assay; format: toxicity, cell-based; conditions: ea.hy 926, 0.5 h, dose 12.5-100 µM
[5] = Stability in human plasma assessed as intact parent compound level measured after 24 hrs by LC-MS analysis; format: ADME, cell-free; conditions: read-out: Stability
[6] = target: Pannexin-1 (Homo sapiens) (UniProt Q96RD7); assay: Inhibition of PANX1 in human EA.hy 926 cells assessed as reduction in HOS-induced ATP release at 12.5 uM preincubated for 10 mins followed by HOS solution addition and measured after 30 mins by bioluminescence analysis relative to control; format: cell-based; conditions: time 40.0 min
EA.hy 926 [7] = assay: Antiinflammatory activity in TNF-alpha stimulated human EA.hy926 cells cocultured with human THP-1 cells assessed as inhibition of monocyte adhesion at 12.5 uM incubated for 15 mins followed by adhesion for 2 hrs; format: functional, cell-based; conditions: time 135.0 min
[8] = Stability in human plasma assessed as half life at 1.2 mM incubated for 30 mins by LC-MS analysis; format: ADME, cell-free
[9] = target: Pannexin-1 (Mus musculus) (UniProt Q9JIP4); assay: Inhibition of PANX1 in mouse B16-BL6 cells assessed as reduction in HOS-induced ATP release preincubated for 10 mins followed by HOS solution addition and measured after 30 mins by bioluminescence analysis; format: cell-based; conditions: dose 6.25-400 µM, time 40.0 min
[10] = target: Pannexin-1 (Mus musculus) (UniProt Q9JIP4); assay: Inhibition of PANX1 in mouse B16-BL6 cells assessed as reduction in HOS-induced Yo-Pro-1 uptake by measuring reduction in green fluorescence at 100 uM preincubated for 10 mins followed by HOS solution addition and measured after 30 mins by fluorescence based analysis relative to control; format: cell-based; conditions: time 40.0 min
[11] = target: Pannexin-1 (Mus musculus) (UniProt Q9JIP4); assay: Inhibition of PANX1 in mouse B16-BL6 cells assessed as reduction in HOS-induced Yo-Pro-1 uptake by measuring reduction in green fluorescence at 12.5 uM preincubated for 10 mins followed by HOS solution addition and measured after 30 mins by fluorescence based analysis; format: cell-based; conditions: time 40.0 min
B16-BL6 [12] = assay: Cytotoxicity against mouse B16-BL6 cells at 6.25 to 100 uM incubated for 30 mins with compound in HOS solution by LDH assay; format: toxicity, cell-based; conditions: b16-bl6, 0.5 h, dose 6.25-100 µM
[13] = target: Pannexin-1 (Rattus norvegicus) (UniProt P60570); assay: Inhibition of PANX1 in rat H9C2 cells assessed as reduction in HOS-induced ATP release at 12.5 to 100 uM preincubated for 10 mins followed by HOS solution addition and measured after 30 mins by bioluminescence analysis; format: cell-based; conditions: dose 12.5-100 µM, time 40.0 min
[14] = target: Pannexin-1 (Homo sapiens) (UniProt Q96RD7); assay: Inhibition of PANX1 in human EA.hy 926 cells assessed as reduction in HOS-induced ATP release at 100 uM preincubated for 10 mins followed by HOS solution addition and measured after 30 mins by bioluminescence analysis; format: cell-based; conditions: time 40.0 min
EA.hy 926 [15] = assay: Antiinflammatory activity in TNF-alpha stimulated human EA.hy926 cells cocultured with human THP-1 cells assessed as inhibition of monocyte adhesion at 100 uM incubated for 15 mins followed by adhesion for 2 hrs relative to control; format: functional; conditions: EA.hy 926, 2.25 h, time 135 min
[16] = target: Pannexin-1 (Mus musculus) (UniProt Q9JIP4); assay: Inhibition of PANX1 in mouse B16-BL6 cells assessed as reduction in HOS-induced Yo-Pro-1 uptake by measuring reduction in green fluorescence at 2.5 mM preincubated for 10 mins followed by HOS solution addition and measured after 30 secs to 30 mins by fluorescence based analysis; format: cell-based; conditions: time 10.5-40 min
[17] = target: Pannexin-1 (Rattus norvegicus) (UniProt P60570); assay: Inhibition of PANX1 in rat H9C2 cells assessed as reduction in HOS-induced ATP release at 2.5 mM preincubated for 10 mins followed by HOS solution addition and measured after 30 mins by bioluminescence analysis; format: cell-based; conditions: time 40.0 min
B16-BL6 [18] = assay: Cytotoxicity against mouse B16-BL6 cells at 2.5 mM incubated for 30 mins with compound in HOS solution by LDH assay; format: toxicity, cell-based; conditions: b16-bl6, 0.5 h, 2500 µM
[19] = target: Pannexin-1 (Homo sapiens) (UniProt Q96RD7); assay: Inhibition of PANX1 in human EA.hy 926 cells assessed as reduction in HOS-induced ATP release at 2.5 mM preincubated for 10 mins followed by HOS solution addition and measured after 30 mins by bioluminescence analysis; format: cell-based; conditions: time 40.0 min

Pannexin-1 (Mus musculus), sequence (Q9JIP4 whole entry): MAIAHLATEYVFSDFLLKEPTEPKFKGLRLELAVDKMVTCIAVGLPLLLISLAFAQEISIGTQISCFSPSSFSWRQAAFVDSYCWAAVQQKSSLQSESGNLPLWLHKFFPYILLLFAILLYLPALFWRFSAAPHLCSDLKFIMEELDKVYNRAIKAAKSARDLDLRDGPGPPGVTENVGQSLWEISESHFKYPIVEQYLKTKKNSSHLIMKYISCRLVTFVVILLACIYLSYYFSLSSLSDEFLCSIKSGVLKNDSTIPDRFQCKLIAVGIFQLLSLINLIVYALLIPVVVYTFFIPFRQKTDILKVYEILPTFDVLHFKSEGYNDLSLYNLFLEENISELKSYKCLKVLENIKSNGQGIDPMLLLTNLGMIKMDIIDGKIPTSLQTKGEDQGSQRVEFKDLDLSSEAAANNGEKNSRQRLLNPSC
Pannexin-1 (Homo sapiens), sequence (Q96RD7 whole entry): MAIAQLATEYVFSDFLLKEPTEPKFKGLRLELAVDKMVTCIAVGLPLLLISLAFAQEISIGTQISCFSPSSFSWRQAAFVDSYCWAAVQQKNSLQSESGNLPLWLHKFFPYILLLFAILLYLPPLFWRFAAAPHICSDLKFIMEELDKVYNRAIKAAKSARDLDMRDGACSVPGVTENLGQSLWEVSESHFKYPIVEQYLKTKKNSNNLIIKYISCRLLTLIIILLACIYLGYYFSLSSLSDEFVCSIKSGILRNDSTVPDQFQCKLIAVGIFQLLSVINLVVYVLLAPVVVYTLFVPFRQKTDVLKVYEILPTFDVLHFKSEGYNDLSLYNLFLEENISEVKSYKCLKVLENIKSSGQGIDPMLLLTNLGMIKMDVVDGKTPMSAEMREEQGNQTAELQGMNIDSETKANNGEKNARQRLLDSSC
Pannexin-1 (Rattus norvegicus), sequence (P60570 whole entry): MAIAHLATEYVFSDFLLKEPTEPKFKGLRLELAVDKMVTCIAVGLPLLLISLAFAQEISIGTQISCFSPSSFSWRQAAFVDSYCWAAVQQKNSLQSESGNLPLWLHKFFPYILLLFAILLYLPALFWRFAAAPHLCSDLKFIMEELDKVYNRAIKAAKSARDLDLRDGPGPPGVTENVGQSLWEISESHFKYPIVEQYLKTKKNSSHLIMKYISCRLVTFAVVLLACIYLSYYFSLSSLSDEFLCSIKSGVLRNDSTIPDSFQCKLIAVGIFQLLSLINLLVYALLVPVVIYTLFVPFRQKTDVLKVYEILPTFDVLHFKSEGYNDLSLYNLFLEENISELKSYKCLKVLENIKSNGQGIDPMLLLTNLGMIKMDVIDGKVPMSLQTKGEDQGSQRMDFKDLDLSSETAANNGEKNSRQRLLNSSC

For `CC(=O)N[C@H]1Cc2cn(nn2)CCCC[C@@H](C(=O)N[C@H]2Cc3cn(nn3)CCCC[C@@H](C(=O)N[C@@H](Cc3ccc(O)cc3)C(N)=O)NC(=O)[C@H](CC(=O)O)NC(=O)[C@H](C(C)C)NC(=O)[C@H](Cc3ccccc3)NC2=O)NC(=O)[C@H](CCC(N)=O)NC(=O)[C@H](CCCNC(=N)N)NC(=O)[C@H](Cc2c[nH]c3ccccc23)NC1=O` (Ac-[Pra]WRQ[Lys(N3)][Pra]FVD[Lys(N3)]Y-NH2; triazole 1-5, 6-10), the inhibition [1] was 48%, the inhibition [2] was “Active” and the Activity (B16-BL6 [3]) was “Non-Toxic”.

For `CC(C)[C@@H]1NC(=O)[C@H](Cc2ccccc2)NC(=O)[C@@H](NC(=O)[C@@H]2CCCCn3cc(nn3)C[C@H](NC(=O)CCCCCNC(=O)[C@@H](N)CCCCN)C(=O)N[C@@H](Cc3c[nH]c4ccccc34)C(=O)N[C@@H](CCCNC(=N)N)C(=O)N[C@@H](CCC(N)=O)C(=O)N2)Cc2cn(nn2)CCCC[C@@H](C(=O)N[C@@H](Cc2ccc(O)cc2)C(N)=O)NC(=O)[C@H](CC(=O)O)NC1=O` (H-K[Ahx][Pra]WRQ[Lys(N3)][Pra]FVD[Lys(N3)]Y-NH2; triazole 3-7, 8-12), the Activity (EA.hy 926 [4]) was “Non-Toxic”, the remaining at 24 h [5] was 20% and the inhibition [6] was 25%. For the same compound, the inhibition (EA.hy 926 [7]) was “Active”.

In the case of `CC(C)[C@H](NC(=O)[C@H](Cc1ccccc1)NC(=O)[C@H](C)NC(=O)[C@H](C)NC(=O)[C@H](CCC(N)=O)NC(=O)[C@H](CCCNC(=N)N)NC(=O)[C@@H](N)Cc1c[nH]c2ccccc12)C(=O)N[C@@H](CC(=O)O)C(=O)N[C@@H](CO)C(=O)N[C@@H](Cc1ccc(O)cc1)C(=O)O` (H-WRQAAFVDSY-OH), the Activity (EA.hy 926 [4]) is reported as “Non-Toxic”, the half-life at 1200 µM [8] is reported as 2.27 min and the inhibition [9] is reported as “Dose-Dependent Effect”. For the same compound, the inhibition [10] was 14%, the inhibition [11] was “inactive” and the Activity (B16-BL6 [12]) was “Non-Toxic”. The inhibition [13] was “inactive”, the inhibition [14] was “Active” and the inhibition [6] was 35%. The inhibition at 100 µM (EA.hy 926 [15]) was 17%.

For `CCCN(CCC)S(=O)(=O)c1ccc(C(=O)O)cc1` [PROBENECID], the inhibition [16] was “Active”, the inhibition [17] was “inactive” and the Activity (B16-BL6 [18]) was “Non-Toxic”. The inhibition [19] was “Active”.
